Laboratory results reported in patent US20080009418A1, “Selective Inhibitors” (Alchemia LTD., priority 2004, published 2008).

Experiments:
Conditions in all cases: compound at 10 μM
Human κ-Opioid (KOP) = target: T1, Human κ-Opioid (KOP) (Homo sapiens, UniProt P41145); experiment: Radioligand binding, human κ-opioid (KOP) membranes, filtration, [3H]-Diprenorphine
T1 construct: purchased Perkin Elmer Biosignal
Method in brief: (§1)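 Percent inhibition of radioligand binding measured on recombinant human membranes: NK1 with [125I]-Substance P, KOP with [3H]-Diprenorphine. Incubation 1 h at room temperature, then harvest onto 0.3% PEI-soaked filters, cold Tris-HCl pH 7.4 washes and scintillation counting; non-specific binding from reference ligand wells.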

Human opioid (ORL1) = target: T2, Human opioid (ORL1) (Homo sapiens, UniProt P41146); experiment: Radioligand binding, human opioid ORL1 membranes, FlashPlate, [125I]-Nociceptin
T2 construct: purchased Perkin Elmer Biosignal
T2 sequence (P41146 whole entry): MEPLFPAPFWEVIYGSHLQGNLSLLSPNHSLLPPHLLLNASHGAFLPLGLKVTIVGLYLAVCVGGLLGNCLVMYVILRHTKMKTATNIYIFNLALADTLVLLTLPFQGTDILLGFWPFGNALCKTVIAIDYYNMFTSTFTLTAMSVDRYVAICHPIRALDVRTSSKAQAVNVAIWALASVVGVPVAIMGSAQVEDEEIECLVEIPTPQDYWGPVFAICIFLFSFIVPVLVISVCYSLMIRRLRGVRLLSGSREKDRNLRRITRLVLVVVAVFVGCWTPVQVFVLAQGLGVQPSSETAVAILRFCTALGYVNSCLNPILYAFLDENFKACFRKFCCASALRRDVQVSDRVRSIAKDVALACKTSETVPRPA
Method in brief: (§2)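 Cloned human receptor membranes were coated onto FlashPlate wells and incubated with radioligand and compound (added from a 0.5 mM DMSO daughter plate) for 1 hour at room temperature in the dark. Scintillation counting gave percent inhibition, with DMSO defining total and reference ligand defining non-specific binding.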

Mouse urotensin (mUR2) = target: T3, Mouse urotensin (mUR2) (Mus musculus, UniProt Q8VIH9); experiment: Radioligand binding, mouse urotensin mUR2 membranes, FlashPlate, [125I]-Urotensin II
T3 construct: purchased Perkin Elmer Biosignal
T3 sequence (Q8VIH9 1-385): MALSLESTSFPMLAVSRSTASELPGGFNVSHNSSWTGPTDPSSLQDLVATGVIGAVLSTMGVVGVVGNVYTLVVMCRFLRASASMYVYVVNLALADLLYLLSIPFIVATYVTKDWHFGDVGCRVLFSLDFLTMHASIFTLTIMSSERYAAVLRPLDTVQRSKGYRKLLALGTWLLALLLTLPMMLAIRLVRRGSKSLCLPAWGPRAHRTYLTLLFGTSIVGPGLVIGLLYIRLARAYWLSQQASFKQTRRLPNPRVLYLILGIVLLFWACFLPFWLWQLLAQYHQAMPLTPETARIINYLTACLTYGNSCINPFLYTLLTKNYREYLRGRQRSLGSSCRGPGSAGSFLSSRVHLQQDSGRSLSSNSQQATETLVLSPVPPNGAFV
Method in brief: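 Cloned mouse urotensin (mUR2) receptor membranes from Perkin Elmer Biosignal were immobilized in FlashPlate microplates using a proprietary coating. Each well got 19.5 μl buffer, then 0.5 μl of DMSO, reference ligand, or compound. Adding 5 μl of [125I]-Urotensin II, diluted to 5× final concentration in binding buffer, started binding. Plates were sealed with TopSeal-A and incubated 1 hour at room temperature in the dark. Wells were counted for 30 seconds each on a TopCount after a 60-second delay, and percentage inhibition was calculated.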

Human melanocortin (MC5) = target: T4, Human melanocortin (MC5) (Homo sapiens, UniProt P33032); experiment: Radioligand binding, human melanocortin MC5 membranes, FlashPlate, [125I]-NDP-αMSH
T4 construct: purchased Perkin Elmer Biosignal
T4 sequence (P33032 whole entry): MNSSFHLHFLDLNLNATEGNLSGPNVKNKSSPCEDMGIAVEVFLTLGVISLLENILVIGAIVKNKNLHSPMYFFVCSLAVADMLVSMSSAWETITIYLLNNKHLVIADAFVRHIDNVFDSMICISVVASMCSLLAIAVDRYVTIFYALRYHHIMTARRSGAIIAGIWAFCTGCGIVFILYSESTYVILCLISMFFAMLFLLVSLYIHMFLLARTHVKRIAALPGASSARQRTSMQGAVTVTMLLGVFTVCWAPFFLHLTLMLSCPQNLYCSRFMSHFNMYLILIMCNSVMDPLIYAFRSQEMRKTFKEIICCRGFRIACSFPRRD
Method in brief: as §2

[1] = target: T5, Human neuropeptide Y (NPY-Y1) (Homo sapiens, UniProt P25929); experiment: Radioligand binding, human neuropeptide Y NPY-Y1 membranes, FlashPlate, [125I]-PYY
T5 construct: purchased Perkin Elmer Biosignal
T5 sequence (P25929 1-384): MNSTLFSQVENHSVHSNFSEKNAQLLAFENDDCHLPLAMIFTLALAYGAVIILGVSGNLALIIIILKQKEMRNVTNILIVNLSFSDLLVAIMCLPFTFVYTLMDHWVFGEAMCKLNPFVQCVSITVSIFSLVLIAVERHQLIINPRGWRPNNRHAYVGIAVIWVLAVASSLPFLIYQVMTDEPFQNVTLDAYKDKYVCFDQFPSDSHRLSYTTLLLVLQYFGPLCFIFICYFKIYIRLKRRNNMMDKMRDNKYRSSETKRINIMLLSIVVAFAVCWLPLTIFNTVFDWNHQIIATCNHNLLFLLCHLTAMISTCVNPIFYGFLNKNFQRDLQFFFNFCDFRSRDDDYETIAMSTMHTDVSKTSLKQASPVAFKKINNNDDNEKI
Method in brief: as §2

Human neurokinin (NK1) = target: T6, Human neurokinin (NK1) (Homo sapiens, UniProt P25103); experiment: Radioligand binding, human neurokinin NK1 membranes, filtration, [125I]-Substance P
T6 construct: purchased Perkin Elmer Biosignal
T6 sequence (P25103 whole entry): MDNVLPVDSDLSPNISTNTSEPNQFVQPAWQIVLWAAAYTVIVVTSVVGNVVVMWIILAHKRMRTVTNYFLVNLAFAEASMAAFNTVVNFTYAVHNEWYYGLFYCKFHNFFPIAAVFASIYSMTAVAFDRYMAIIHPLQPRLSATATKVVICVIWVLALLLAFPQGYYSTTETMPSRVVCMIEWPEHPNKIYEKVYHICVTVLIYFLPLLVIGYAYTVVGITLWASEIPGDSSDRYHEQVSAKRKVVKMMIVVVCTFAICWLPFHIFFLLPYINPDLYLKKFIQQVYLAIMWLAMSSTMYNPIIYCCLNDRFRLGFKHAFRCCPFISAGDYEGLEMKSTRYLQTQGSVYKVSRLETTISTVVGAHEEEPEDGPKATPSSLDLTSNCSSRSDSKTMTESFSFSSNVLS
Method in brief: as §1

Human μ-opioid (MOP) = target: T7, Human μ-opioid (MOP) (Homo sapiens, UniProt P35372); experiment: Radioligand binding, human μ-opioid (MOP) membranes, FlashPlate, [3H]-Naloxone
T7 construct: purchased Perkin Elmer Biosignal
T7 sequence (P35372 whole entry): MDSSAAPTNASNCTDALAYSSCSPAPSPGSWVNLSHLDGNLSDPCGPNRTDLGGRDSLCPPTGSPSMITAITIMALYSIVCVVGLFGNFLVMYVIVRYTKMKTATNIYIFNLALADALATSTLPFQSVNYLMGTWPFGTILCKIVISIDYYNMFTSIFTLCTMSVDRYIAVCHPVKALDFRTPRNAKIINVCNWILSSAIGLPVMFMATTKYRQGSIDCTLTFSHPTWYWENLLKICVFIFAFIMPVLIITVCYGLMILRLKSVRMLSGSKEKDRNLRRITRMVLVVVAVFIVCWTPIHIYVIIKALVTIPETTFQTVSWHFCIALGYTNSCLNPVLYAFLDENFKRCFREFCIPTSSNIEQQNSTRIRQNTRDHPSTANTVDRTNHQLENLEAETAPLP
Method in brief: as §2

Human Melanocortin (MC3) = target: T8, Human Melanocortin (MC3) (Homo sapiens, UniProt P41968); experiment: Radioligand binding, human melanocortin MC3 membranes, FlashPlate, [125I]-NDP-αMSH
T8 construct: purchased Perkin Elmer Biosignal
T8 sequence (P41968 whole entry): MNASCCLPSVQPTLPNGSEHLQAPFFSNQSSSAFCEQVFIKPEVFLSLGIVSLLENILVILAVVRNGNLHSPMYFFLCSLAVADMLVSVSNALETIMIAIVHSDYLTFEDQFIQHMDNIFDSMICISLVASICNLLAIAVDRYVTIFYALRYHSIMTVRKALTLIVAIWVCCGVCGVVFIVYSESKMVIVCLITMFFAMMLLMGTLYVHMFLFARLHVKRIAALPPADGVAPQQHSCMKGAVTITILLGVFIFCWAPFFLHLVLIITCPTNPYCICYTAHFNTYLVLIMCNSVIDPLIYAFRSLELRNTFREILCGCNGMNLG
Method in brief: as §2

Human Melanocortin (MC4) = target: T9, Human Melanocortin (MC4) (Homo sapiens, UniProt P32245); experiment: Radioligand binding, human melanocortin MC4 membranes, FlashPlate, [125I]-NDP-αMSH
T9 construct: purchased Perkin Elmer Biosignal
T9 sequence (P32245 whole entry): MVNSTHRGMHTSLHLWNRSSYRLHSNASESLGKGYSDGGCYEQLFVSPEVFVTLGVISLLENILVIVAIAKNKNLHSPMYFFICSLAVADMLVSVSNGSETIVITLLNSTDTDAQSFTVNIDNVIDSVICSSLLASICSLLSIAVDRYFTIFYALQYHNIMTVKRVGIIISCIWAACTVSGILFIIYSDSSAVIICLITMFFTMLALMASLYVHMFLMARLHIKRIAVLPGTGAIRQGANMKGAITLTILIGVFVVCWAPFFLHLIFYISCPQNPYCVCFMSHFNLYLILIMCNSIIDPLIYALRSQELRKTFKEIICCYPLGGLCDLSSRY
Method in brief: as §2

[2] = target: T10, Human melanin-concentrating hormone (MCH1) (Homo sapiens, UniProt Q99705); experiment: Radioligand binding, human melanin-concentrating hormone MCH1 membranes, FlashPlate, [125I]-S36057
T10 construct: purchased Perkin Elmer Biosignal
T10 sequence (Q99705 whole entry): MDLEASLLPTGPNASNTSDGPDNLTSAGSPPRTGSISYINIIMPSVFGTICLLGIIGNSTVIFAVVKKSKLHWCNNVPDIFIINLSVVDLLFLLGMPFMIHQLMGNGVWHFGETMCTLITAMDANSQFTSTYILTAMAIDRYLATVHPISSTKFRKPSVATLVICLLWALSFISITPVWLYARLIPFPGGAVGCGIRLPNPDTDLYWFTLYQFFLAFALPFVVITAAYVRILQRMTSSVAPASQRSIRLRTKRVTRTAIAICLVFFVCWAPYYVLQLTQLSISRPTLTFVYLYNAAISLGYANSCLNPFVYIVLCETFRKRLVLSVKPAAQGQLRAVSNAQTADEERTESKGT
Method in brief: as §2

Human δ-opioid (DOP) = target: T11, Human δ-opioid (DOP) (Homo sapiens, UniProt P41143); experiment: Radioligand binding, human δ-opioid (DOP) membranes, FlashPlate, [3H]-Bremazocine
T11 construct: purchased Perkin Elmer Biosignal
T11 sequence (P41143 whole entry): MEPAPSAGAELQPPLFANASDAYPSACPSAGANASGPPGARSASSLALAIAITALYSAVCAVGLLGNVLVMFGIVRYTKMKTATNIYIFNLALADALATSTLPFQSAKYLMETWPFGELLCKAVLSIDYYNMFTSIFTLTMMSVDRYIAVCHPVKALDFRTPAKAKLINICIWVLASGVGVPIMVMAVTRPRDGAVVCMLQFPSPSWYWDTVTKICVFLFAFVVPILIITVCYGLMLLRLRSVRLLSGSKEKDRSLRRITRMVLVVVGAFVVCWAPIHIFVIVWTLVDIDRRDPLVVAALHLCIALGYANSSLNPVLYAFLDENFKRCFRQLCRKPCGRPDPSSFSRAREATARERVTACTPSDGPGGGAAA
Method in brief: as §2

T1 sequence (P41145 whole entry): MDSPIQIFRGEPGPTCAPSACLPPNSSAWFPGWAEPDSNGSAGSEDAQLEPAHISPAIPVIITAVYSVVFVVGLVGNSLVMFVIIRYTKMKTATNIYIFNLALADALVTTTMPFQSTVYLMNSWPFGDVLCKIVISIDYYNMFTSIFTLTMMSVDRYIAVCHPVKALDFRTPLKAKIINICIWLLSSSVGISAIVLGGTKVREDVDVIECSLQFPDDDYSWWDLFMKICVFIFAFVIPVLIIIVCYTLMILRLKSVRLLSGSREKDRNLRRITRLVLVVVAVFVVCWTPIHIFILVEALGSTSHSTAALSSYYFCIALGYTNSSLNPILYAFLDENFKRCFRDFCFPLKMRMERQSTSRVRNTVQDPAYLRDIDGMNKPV

COC[C@H]1OC(OCc2ccc3ccccc3c2)[C@H](NC(=O)CCNC(=N)N)[C@@H](OCc2ccccc2)[C@@H]1O (stereo partly shown) [compound 19] was tested, and the “A2 radioligand binding inhibition” value (Human κ-Opioid (KOP); human κ-opioid (KOP) membranes) was “− (“−” indicates less than 50% inhibition at 10 μM)”, the “A10 radioligand binding inhibition” value (Human opioid (ORL1); human ORL1 membranes) was “− (“−” indicates less than 50% inhibition at 10 μM)” and the “A11 radioligand binding inhibition” value (Mouse urotensin (mUR2); mouse urotensin mUR2 membranes) was “− (“−” indicates less than 50% inhibition at 10 μM)”. For the same molecule, the “A5 radioligand binding inhibition” value (Human melanocortin (MC5); human melanocortin MC5 membranes) was “− (“−” indicates less than 50% inhibition at 10 μM)”, the “A9 radioligand binding inhibition” value ([1]; human NPY-Y1 membranes) was “− (“−” indicates less than 50% inhibition at 10 μM)” and the “A8 radioligand binding inhibition” value (Human neurokinin (NK1); human neurokinin NK1 membranes) was “+ (“+” indicates greater than 50% inhibition at 10 μM)”. The “A7 radioligand binding inhibition” value (Human μ-opioid (MOP); human μ-opioid (MOP) membranes) was “+ (“+” indicates greater than 50% inhibition at 10 μM)”, the “A3 radioligand binding inhibition” value (Human Melanocortin (MC3); human melanocortin MC3 membranes) was “− (“−” indicates less than 50% inhibition at 10 μM)” and the “A4 radioligand binding inhibition” value (Human Melanocortin (MC4); human melanocortin MC4 membranes) was “− (“−” indicates less than 50% inhibition at 10 μM)”. The “A6 radioligand binding inhibition” value ([2]; human MCH1 membranes) was “− (“−” indicates less than 50% inhibition at 10 μM)” and the “A1 radioligand binding inhibition” value (Human δ-opioid (DOP); human δ-opioid (DOP) membranes) was “− (“−” indicates less than 50% inhibition at 10 μM)”.
CSC1O[C@H](COCc2ccc(-c3ccccc3)cc2)[C@@H](O)[C@@H](OCc2ccc(-c3ccccc3)cc2)[C@H]1NC(=O)CCCN (stereo partly shown) [compound 294] was tested, and the “A2: inhibition of radioligand binding, human κ-opioid (KOP)” value (Human κ-Opioid (KOP); [3H]-Diprenorphine) was “− (“−” indicates less than 50% inhibition at 10 μM)”, the “A10: inhibition of radioligand binding, human opioid (ORL1)” value (Human opioid (ORL1); [125I]-Nociceptin) was “− (“−” indicates less than 50% inhibition at 10 μM)” and the “A11: inhibition of radioligand binding, mouse urotensin (mUR2)” value (Mouse urotensin (mUR2); [125I]-Urotensin II) was “− (“−” indicates less than 50% inhibition at 10 μM)”. For the same molecule, the “A5: inhibition of radioligand binding, human melanocortin (MC5)” value (Human melanocortin (MC5); [125I]-NDP-αMSH) was “+ (“+” indicates greater than 50% inhibition at 10 μM)”, the “A9: inhibition of radioligand binding, human neuropeptide Y (NPY-Y1)” value ([1]; [125I]-PYY) was “− (“−” indicates less than 50% inhibition at 10 μM)” and the “A8: inhibition of radioligand binding, human neurokinin (NK1)” value (Human neurokinin (NK1); [125I]-Substance P) was “+ (“+” indicates greater than 50% inhibition at 10 μM)”. The “A7: inhibition of radioligand binding, human μ-opioid (MOP)” value (Human μ-opioid (MOP); [3H]-Naloxone) was “− (“−” indicates less than 50% inhibition at 10 μM)”, the “A3: inhibition of radioligand binding, human melanocortin (MC3)” value (Human Melanocortin (MC3); [125I]-NDP-αMSH) was “− (“−” indicates less than 50% inhibition at 10 μM)” and the “A4: inhibition of radioligand binding, human melanocortin (MC4)” value (Human Melanocortin (MC4); [125I]-NDP-αMSH) was “− (“−” indicates less than 50% inhibition at 10 μM)”. For the same molecule, the “A6: inhibition of radioligand binding, human melanin-concentrating hormone (MCH1)” value ([2]; [125I]-S36057) was “− (“−” indicates less than 50% inhibition at 10 μM)” and the “A1: inhibition of radioligand binding, human δ-opioid (DOP)” value (Human δ-opioid (DOP); [3H]-Bremazocine) was “− (“−” indicates less than 50% inhibition at 10 μM)”.
